This assay relates to p53 protein. Briefly: Western blot analysis of p53 protein expression in MEF p53+/+. As to conditions: MEFs p53+/+, 16 hours treatment. In kind it is cell-based, mouse. Here is the method:
Dose-response curves are provided in Supplementary Figure S3. Compound 1 was not assayed using this system.
Western blot analyses were performed as previously described. Briefly, cells were harvested and lysed in 50 mM Tris-HCl (pH 7.5), 250 mM NaCl, 1 mM EDTA, 50 mM NaF, 0.5% TritonX-10, 0.5 mM Na3VO4 and 1× […] inhibitor (Roche, Indianapolis, Ind., USA). Lysates were incubated on ice for 8 minutes and sonicated using a Vibra-Cell VCX130 (Sonics & Materials, Inc) at 25% amplitude for 10 seconds. Protein concentrations were assayed with the bicinchoninic acid assay (Thermo Scientific, Massachusetts, USA) and subsequently resolved using a 10% SDS-PAGE gel. Proteins were transferred onto a nitrocellulose membrane (Hybond-C Extra, Amersham Biosciences), blocked (10% milk/TBST; 30 mins), hybridized with the appropriate primary or HRP-conjugated secondary antibody and subsequently visualized using Enhanced Chemiluminescence (Amersham Biosciences).
Antibodies used included a mouse anti-β-actin (Sigma), anti-p53 (1C12-mouse specific) (Cell Signalling, Danvers, Mass., USA), sheep anti-mouse IgG-HRP (Amersham Biosciences, Piscataway, N.J., USA), or donkey anti-rabbit IgG-HRP (Amersham Biosciences).
(In general: In western blotting, separated proteins are transferred to a membrane and probed.)

Where a SMILES comes first, the peptide text is derived from it. The star is where a group is joined. Cbz = O=C(OCc1ccccc1)*

`CC(C)C[C@@H](C=O)NC(=O)[C@H](CC(C)C)NC(=O)[C@H](CC(C)C)NC(=O)OCc1ccccc1` [MG132, reference compound] (Cbz-Leu-Leu-Leu-aldehyde): the p53 protein levels entry is recorded as “increase p53 protein levels”.

The record behind these values is patent US20150299250A1, “MACROCYCLIC COMPOUNDS AND USES THEREOF” (ADELAIDE RESEARCH & INNOVATION PTY LTD, priority 2012, published 2015).
